What was measured:
[1] = test system: crabgrass, large; test: Test A postemergence; type: in vivo, Digitaria sanguinalis
Summary of the method: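 Seeds were sown in a loam soil–sand blend and given a directed soil spray preemergence; postemergence plants at 2–10 cm, one- to two-leaf stage, were sprayed with compound in non-phytotoxic solvent with surfactant. After about 10 days in a greenhouse, injury was visually rated against untreated controls (0 = no effect, 100 = complete control).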

[2] = test system: wheat; test: Test C preemergence; type: in vivo, Triticum aestivum; conditions: preemergence; for Plant response rating, Wheat: 125 g ai/ha, scale 0 to 100, 0 = no effect, 100 = complete control
Summary of the method: (§1)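 Seeds sown in loam–sand blend and treated preemergence with test chemicals in non-phytotoxic solvent with surfactant; postemergence plants in peat-based medium, treated at 2–18 cm (1- to 4-leaf stage). Greenhouse 13 to 15 days, then visual rating versus controls, 0 (no effect) to 100 (complete control).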

[3] = test system: galium; test: Test C preemergence; type: in vivo, Galium aparine; conditions: preemergence; for Plant response rating, Galium: 125 g ai/ha, scale 0 to 100, 0 = no effect, 100 = complete control
Summary of the method: as §1

[4] = test system: johnsongrass; test: Test C preemergence; type: in vivo, Sorghum halepense; conditions: preemergence; for Plant response rating, Johnsongrass: 125 g ai/ha, scale 0 to 100, 0 = no effect, 100 = complete control
Summary of the method: as §1

[5] = test system: lambsquarters; test: Test C preemergence; type: in vivo, Chenopodium album; conditions: preemergence; for Plant response rating, Lambsquarters: 125 g ai/ha, scale 0 to 100, 0 = no effect, 100 = complete control
Summary of the method: as §1

[6] = test system: soybean; test: Test C preemergence; type: in vivo, Glycine max; conditions: preemergence; for Plant response rating, Soybean: 125 g ai/ha, scale 0 to 100, 0 = no effect, 100 = complete control
Summary of the method: as §1

[7] = test system: barnyardgrass; test: Test C preemergence; type: in vivo, Echinochloa crus-galli; conditions: preemergence; for Plant response rating, Barnyardgrass: 125 g ai/ha, scale 0 to 100, 0 = no effect, 100 = complete control
Summary of the method: as §1

[8] = test system: oilseed rape; test: Test C preemergence; type: in vivo, Brassica napus; conditions: preemergence; for Plant response rating, Oilseed Rape: 125 g ai/ha, scale 0 to 100, 0 = no effect, 100 = complete control
Summary of the method: as §1

[9] = test system: velvetleaf; test: Test C preemergence; type: in vivo, Abutilon theophrasti; conditions: preemergence; for Plant response rating, Velvetleaf: 125 g ai/ha, scale 0 to 100, 0 = no effect, 100 = complete control
Summary of the method: as §1

[10] = test system: blackgrass; test: Test C postemergence; type: in vivo, Alopecurus myosuroides; conditions: for Plant response rating (scale of 0 to 100 where 0 is no effect and 100 is complete control), Blackgrass: Postemergence, 31 g ai/ha, visually evaluated after 13 to 15 days; for Blackgrass plant response rating / Plant response rating, Blackgrass: postemergence; for Blackgrass plant response rating: 62 g ai/ha, scale 0 to 100
Summary of the method: as §1

[11] = test system: crabgrass, large; test: Test C postemergence; type: in vivo, Digitaria sanguinalis; conditions: for Plant response rating (scale of 0 to 100 where 0 is no effect and 100 is complete control), Crabgrass, Large: Postemergence, 31 g ai/ha, visually evaluated after 13 to 15 days; for Crabgrass, Large plant response rating / Plant response rating, Crabgrass, Large: postemergence; for Crabgrass, Large plant response rating: 62 g ai/ha, scale 0 to 100
Summary of the method: as §1

[12] = test system: johnsongrass; test: Test C postemergence; type: in vivo, Sorghum halepense; conditions: for Plant response rating (scale of 0 to 100 where 0 is no effect and 100 is complete control), Johnsongrass: Postemergence, 31 g ai/ha, visually evaluated after 13 to 15 days; for Johnsongrass plant response rating / Plant response rating, Johnsongrass: postemergence; for Johnsongrass plant response rating: 62 g ai/ha, scale 0 to 100
Summary of the method: as §1

[13] = test system: morningglory; test: Test C postemergence; type: in vivo, Ipomoea coccinea; conditions: for Plant response rating (scale of 0 to 100 where 0 is no effect and 100 is complete control), Morningglory: Postemergence, 31 g ai/ha, visually evaluated after 13 to 15 days; for Morningglory plant response rating / Plant response rating, Morningglory: postemergence; for Morningglory plant response rating: 62 g ai/ha, scale 0 to 100
Summary of the method: as §1

[14] = test system: velvetleaf; test: Test C postemergence; type: in vivo, Abutilon theophrasti; conditions: postemergence, 250 g ai/ha; scale 0 to 100 (0 no effect, 100 complete control)
Summary of the method: as §1

[15] = test system: chickweed; test: Test C postemergence; type: in vivo, Stellaria media; conditions: for Plant response rating (scale of 0 to 100 where 0 is no effect and 100 is complete control), Chickweed: Postemergence, 31 g ai/ha, visually evaluated after 13 to 15 days; for Chickweed plant response rating / Plant response rating, Chickweed: postemergence; for Chickweed plant response rating: 62 g ai/ha, scale 0 to 100
Summary of the method: as §1

[16] = Postemergence, 500 g ai/ha, 0 to 100 scale (0 no effect, 100 complete control)
[17] = postemergence, 125 g ai/ha, about 10 days, visual rating on 0 to 100 scale (0 no effect, 100 complete control)
[18] = 31 g ai/ha, visual rating, scale 0 to 100 (0 no effect, 100 complete control), 13 to 15 days
[19] = 62 g ai/ha, scale 0 to 100 (0 no effect, 100 complete control), 13 to 15 days
[20] = 250 g ai/ha, scale 0 to 100, 0 is no effect, 100 is complete control
[21] = 250 g ai/ha, scale 0 to 100 (0 no effect, 100 complete control)
[22] = 125 g ai/ha, scale 0 to 100, 0 no effect, 100 complete control

CCc1cc(C(=O)NCC2CC2)nn1Cc1ccnc(C(F)(F)F)c1 [Compound 199]
Crabgrass, Large plant response rating [1, 16]: 90 | Crabgrass, Large plant response rating [1, 17]: 90 | Wheat plant response rating [2, 18]: 60 | Wheat plant response rating [2, 19]: 85 | Plant response rating, Wheat ([2]; 13 to 15 days): 90 | Wheat plant response rating [2, 20]: 90 | Galium plant response rating [3, 18]: 40 | Galium plant response rating [3, 19]: 100 | Plant response rating, Galium ([3]; 13 to 15 days): 100 | Galium plant response rating [3, 20]: 100 | Johnsongrass plant response rating [4, 18]: 45 | Johnsongrass plant response rating [4, 19]: 70 | Plant response rating, Johnsongrass ([4]; 13 to 15 days): 98 | Johnsongrass plant response rating [4, 20]: 100 | Lambsquarters plant response rating [5, 18]: 95 | Lambsquarters plant response rating [5, 19]: 100 | Plant response rating, Lambsquarters ([5]; 13 to 15 days): 100 | Lambsquarters plant response rating [5, 20]: 98 | Soybean plant response rating [6, 18]: 30 | Soybean plant response rating [6, 19]: 55 | Plant response rating, Soybean ([6]; 13 to 15 days): 90 | Soybean plant response rating [6, 20]: 95 | Barnyardgrass plant response rating [7, 18]: 95 | Barnyardgrass plant response rating [7, 19]: 100 | Plant response rating, Barnyardgrass ([7]; 13 to 15 days): 100 | Barnyardgrass plant response rating [7, 20]: 100 | Oilseed Rape plant response rating [8, 18]: 80 | Oilseed Rape plant response rating [8, 19]: 95 | Plant response rating, Oilseed Rape ([8]; 13 to 15 days): 100 | Oilseed Rape plant response rating [8, 20]: 100 | Velvetleaf plant response rating [9, 18]: 40 | Velvetleaf plant response rating [9, 19]: 100 | Plant response rating, Velvetleaf ([9]; 13 to 15 days): 100 | Velvetleaf plant response rating [9, 20]: 100 | Plant response rating (scale of 0 to 100 where 0 is no effect and 100 is complete control), Blackgrass [10]: 0 | Blackgrass plant response rating [10]: 10 | Plant response rating, Blackgrass [10, 21]: 30 | Plant response rating, Blackgrass [10, 22]: 10 | Plant response rating (scale of 0 to 100 where 0 is no effect and 100 is complete control), Crabgrass, Large [11]: 10 | Crabgrass, Large plant response rating [11]: 10 | Plant response rating, Crabgrass, Large [11, 21]: 60 | Plant response rating, Crabgrass, Large [11, 22]: 40 | Plant response rating (scale of 0 to 100 where 0 is no effect and 100 is complete control), Johnsongrass [12]: 5 | Johnsongrass plant response rating [12]: 5 | Plant response rating, Johnsongrass [12, 21]: 55 | Plant response rating, Johnsongrass [12, 22]: 40 | Plant response rating (scale of 0 to 100 where 0 is no effect and 100 is complete control), Morningglory [13]: 30 | Morningglory plant response rating [13]: 50 | Plant response rating, Morningglory [13, 21]: 85 | Plant response rating, Morningglory [13, 22]: 60 | Plant response rating, Velvetleaf [14]: 60 | Plant response rating (scale of 0 to 100 where 0 is no effect and 100 is complete control), Chickweed [15]: 70 | Chickweed plant response rating [15]: 60 | Plant response rating, Chickweed [15, 21]: 80 | Plant response rating, Chickweed [15, 22]: 80

CCc1cc(C(=O)NC2CC2)nn1Cc1ccnc(OCC(F)(F)F)c1 [Compound 200]
Crabgrass, Large plant response rating [1, 16]: 100 | Crabgrass, Large plant response rating [1, 17]: 100 | Wheat plant response rating [2, 18]: 0 | Wheat plant response rating [2, 19]: 15 | Plant response rating, Wheat ([2]; 13 to 15 days): 45 | Wheat plant response rating [2, 20]: 75 | Galium plant response rating [3, 18]: 85 | Galium plant response rating [3, 19]: 100 | Plant response rating, Galium ([3]; 13 to 15 days): 100 | Galium plant response rating [3, 20]: 100 | Johnsongrass plant response rating [4, 18]: 50 | Johnsongrass plant response rating [4, 19]: 80 | Plant response rating, Johnsongrass ([4]; 13 to 15 days): 90 | Johnsongrass plant response rating [4, 20]: 98 | Lambsquarters plant response rating [5, 18]: 75 | Lambsquarters plant response rating [5, 19]: 100 | Plant response rating, Lambsquarters ([5]; 13 to 15 days): 100 | Lambsquarters plant response rating [5, 20]: 100 | Soybean plant response rating [6, 18]: 50 | Soybean plant response rating [6, 19]: 70 | Plant response rating, Soybean ([6]; 13 to 15 days): 70 | Soybean plant response rating [6, 20]: 85 | Barnyardgrass plant response rating [7, 18]: 45 | Barnyardgrass plant response rating [7, 19]: 70 | Plant response rating, Barnyardgrass ([7]; 13 to 15 days): 90 | Barnyardgrass plant response rating [7, 20]: 98 | Oilseed Rape plant response rating [8, 18]: 60 | Oilseed Rape plant response rating [8, 19]: 95 | Plant response rating, Oilseed Rape ([8]; 13 to 15 days): 98 | Oilseed Rape plant response rating [8, 20]: 98 | Velvetleaf plant response rating [9, 18]: 40 | Velvetleaf plant response rating [9, 19]: 70 | Plant response rating, Velvetleaf ([9]; 13 to 15 days): 100 | Velvetleaf plant response rating [9, 20]: 100 | Plant response rating (scale of 0 to 100 where 0 is no effect and 100 is complete control), Blackgrass [10]: 5 | Blackgrass plant response rating [10]: 10 | Plant response rating, Blackgrass [10, 21]: 15 | Plant response rating, Blackgrass [10, 22]: 15 | Plant response rating (scale of 0 to 100 where 0 is no effect and 100 is complete control), Crabgrass, Large [11]: 10 | Crabgrass, Large plant response rating [11]: 10 | Plant response rating, Crabgrass, Large [11, 21]: 25 | Plant response rating, Crabgrass, Large [11, 22]: 10 | Plant response rating (scale of 0 to 100 where 0 is no effect and 100 is complete control), Johnsongrass [12]: 10 | Johnsongrass plant response rating [12]: 10 | Plant response rating, Johnsongrass [12, 21]: 20 | Plant response rating, Johnsongrass [12, 22]: 10 | Plant response rating (scale of 0 to 100 where 0 is no effect and 100 is complete control), Morningglory [13]: 65 | Morningglory plant response rating [13]: 65 | Plant response rating, Morningglory [13, 21]: 75 | Plant response rating, Morningglory [13, 22]: 75 | Plant response rating, Velvetleaf [14]: 45 | Plant response rating (scale of 0 to 100 where 0 is no effect and 100 is complete control), Chickweed [15]: 75 | Chickweed plant response rating [15]: 75 | Plant response rating, Chickweed [15, 21]: 90 | Plant response rating, Chickweed [15, 22]: 90

— patent US20150105252A1, “SUBSTITUTED PYRAZOLES AS HERBICIDES” (E I DU PONT DE NEMOURS AND COMPANY, priority 2013, published 2015)
